Laboratory results taken from article PMC12862769 (ACS infectious diseases, 2025).
Converted amounts (≈) assume the structure as drawn. Like-named read-outs stand apart in the source and are kept apart here.

Experiments:
E. faecalis HM-201 = assay: MIC assay; assay type: cell-based
E. faecalis HM-934 = assay: MIC assay; assay type: cell-based
E. faecalis NR-31970 = assay: MIC assay; assay type: cell-based
E. faecium ATCC 700221 = assay: MIC assay; assay type: cell-based
E. faecium HM-952 = assay: MIC assay; assay type: cell-based
E. faecium HM-965 = assay: MIC assay; assay type: cell-based
E. faecium HM-970 = assay: MIC assay; assay type: cell-based
E. faecium NR-31909 [1] = assay: MIC assay; assay type: cell-based
E. faecium NR-31912 = assay: MIC assay; assay type: cell-based
E. faecium NR-31933 = assay: MIC assay; assay type: cell-based
E. faecium NR-31937 = assay: MIC assay; assay type: cell-based
E. faecium NR-31954 = assay: MIC assay; assay type: cell-based
E. faecium NR-32053 = assay: MIC assay; assay type: cell-based
E. faecium NR-32094 = assay: MIC assay; assay type: cell-based
E. avium ATCC 14025 = assay: MIC assay; assay type: cell-based
[2] = test system: E. casseliflavus ATCC 700327; assay: MIC assay; assay type: cell-based
E. durans ATCC 11576 = assay: MIC assay; assay type: cell-based
E. gallinarum ATCC 49373 = assay: MIC assay; assay type: cell-based
E. hirae ATCC 10541 = assay: MIC assay; assay type: cell-based
E. raffinosus ATCC 49464 = assay: MIC assay; assay type: cell-based
[3] = test system: E. saccharolyticus ATCC 43076; assay: MIC assay; assay type: cell-based
[4] = test system: Listeria Monocytogenes ATCC 19111; assay: MIC assay; assay type: cell-based; details: encodes only α-CA, no MpsAB homologs
[5] = test system: Staphylococcus aureus USA300; assay: MIC assay; assay type: cell-based; details: no CAs, expresses MpsAB homologs
[6] = test system: Staphylococcus epidermidis NRS101; assay: MIC assay; assay type: cell-based; details: no CAs, expresses MpsAB homologs
[7] = test system: Bacillus subtilis ATCC11774; assay: MIC assay; assay type: cell-based; details: encodes both MpsAB and CAs
[8] = test system: E. faecalis and E. faecium strains; assay: MIC assay, panel of 25 E. faecalis and E. faecium strains; assay type: cell-based; details: ambient air
[9] = test system: all tested Enterococcus strains; assay: MIC assay, all tested Enterococcus strains; assay type: cell-based
E. faecium α-CA = assay: in vitro inhibition of bacterial α-CA; assay type: biochemical
E. faecium NR-31909 [10] = assay: E. faecium septicemic peritonitis mouse model; assay type: in vivo, BALB/c mice
E. faecalis HM-334 = details: cited from earlier work
E. faecalis HM-335 = details: cited from earlier work
[11] = test system: α-Carbonic anhydrase (Q3XYE8); details: lysates pre-incubated with 100 μM free inhibitor, compared to Biotin-AZM; α-CA
E. faecalis NR-31971 = details: cited from earlier work
E. faecalis NR-31972 = details: cited from earlier work
E. faecium HM-968 = details: cited from earlier work
E. faecium NR-28978 = details: cited from earlier work
E. faecium NR-31903 = details: cited from earlier work
E. faecium NR-31914 = details: cited from earlier work
E. faecium NR-31916 = details: cited from earlier work
E. faecium NR-32052 = details: cited from earlier work
E. faecium NR-32065 = details: cited from earlier work

For `CC(=O)Nc1nnc(S(N)(=O)=O)s1` [AZM, acetazolamide], the MIC (E. faecalis HM-201; 5% CO2 atmosphere at 37° C) was greater than 288 µM, the MIC (E. faecalis HM-201; ambient air at 37° C) was 18.0 µM (≈ 4 µg/mL) and the MIC (E. faecalis HM-934; 5% CO2 atmosphere at 37° C) was greater than 288 µM. It also gave an MIC (E. faecalis HM-934; ambient air at 37° C) of 9.01 µM (≈ 2 µg/mL), an MIC (E. faecalis NR-31970; 5% CO2 atmosphere at 37° C) greater than 288 µM and an MIC (E. faecalis NR-31970; ambient air at 37° C) of 18.0 µM (≈ 4 µg/mL). It also gave an MIC (E. faecium ATCC 700221; 5% CO2 atmosphere at 37° C) greater than 288 µM, an MIC (E. faecium ATCC 700221; ambient air at 37° C) of 9.01 µM (≈ 2 µg/mL) and an MIC (E. faecium HM-952; 5% CO2 atmosphere at 37° C) greater than 288 µM. It also gave an MIC (E. faecium HM-952; ambient air at 37° C) of 9.01 µM (≈ 2 µg/mL), an MIC (E. faecium HM-965; 5% CO2 atmosphere at 37° C) greater than 288 µM and an MIC (E. faecium HM-965; ambient air at 37° C) of 4.50 µM (≈ 1 µg/mL). The MIC (E. faecium HM-970; 5% CO2 atmosphere at 37° C) was greater than 288 µM, the MIC (E. faecium HM-970; ambient air at 37° C) was 9.01 µM (≈ 2 µg/mL) and the MIC (E. faecium NR-31909 [1]; 5% CO2 atmosphere at 37° C) was greater than 288 µM. For the same molecule, the MIC (E. faecium NR-31909 [1]; ambient air at 37° C) was 9.01 µM (≈ 2 µg/mL), the MIC (E. faecium NR-31912; 5% CO2 atmosphere at 37° C) was greater than 288 µM and the MIC (E. faecium NR-31912; ambient air at 37° C) was 9.01 µM (≈ 2 µg/mL). The MIC (E. faecium NR-31933; 5% CO2 atmosphere at 37° C) was greater than 288 µM, the MIC (E. faecium NR-31933; ambient air at 37° C) was 9.01 µM (≈ 2 µg/mL) and the MIC (E. faecium NR-31937; 5% CO2 atmosphere at 37° C) was greater than 288 µM. The MIC (E. faecium NR-31937; ambient air at 37° C) was 9.01 µM (≈ 2 µg/mL), the MIC (E. faecium NR-31954; 5% CO2 atmosphere at 37° C) was greater than 288 µM and the MIC (E. faecium NR-31954; ambient air at 37° C) was 36.0 µM (≈ 8 µg/mL). It also gave an MIC (E. faecium NR-32053; 5% CO2 atmosphere at 37° C) greater than 288 µM, an MIC (E. faecium NR-32053; ambient air at 37° C) of 4.50 µM (≈ 1 µg/mL) and an MIC (E. faecium NR-32094; 5% CO2 atmosphere at 37° C) greater than 288 µM. The MIC (E. faecium NR-32094; ambient air at 37° C) was 9.01 µM (≈ 2 µg/mL), the MIC (E. avium ATCC 14025; 5% CO2 atmosphere at 37° C) was greater than 288 µM and the MIC (E. avium ATCC 14025; ambient air at 37° C) was 72.0 µM (≈ 16 µg/mL). It also gave an MIC ([2]; 5% CO2 atmosphere at 37° C) greater than 288 µM, an MIC ([2]; ambient air at 37° C) of 72.0 µM (≈ 16 µg/mL) and an MIC (E. durans ATCC 11576; 5% CO2 atmosphere at 37° C) greater than 288 µM. It also gave an MIC (E. durans ATCC 11576; ambient air at 37° C) of 2.25 µM (≈ 0.5 µg/mL), an MIC (E. gallinarum ATCC 49373; 5% CO2 atmosphere at 37° C) greater than 288 µM and an MIC (E. gallinarum ATCC 49373; ambient air at 37° C) of 36.0 µM (≈ 8 µg/mL). For the same molecule, the MIC (E. hirae ATCC 10541; 5% CO2 atmosphere at 37° C) was greater than 288 µM, the MIC (E. hirae ATCC 10541; ambient air at 37° C) was 36.0 µM (≈ 8 µg/mL) and the MIC (E. raffinosus ATCC 49464; 5% CO2 atmosphere at 37° C) was greater than 288 µM. It also gave an MIC (E. raffinosus ATCC 49464; ambient air at 37° C) of 36.0 µM (≈ 8 µg/mL), an MIC ([3]; 5% CO2 atmosphere at 37° C) greater than 288 µM and an MIC ([3]; ambient air at 37° C) of 4.50 µM (≈ 1 µg/mL). For the same molecule, the MIC ([4]; 5% CO2 atmosphere at 37° C) was greater than 500 µM, the MIC ([4]; ambient air at 37° C) was 72 µM (≈ 16 µg/mL) and the MIC ([5]; 5% CO2 atmosphere at 37° C) was greater than 500 µM. The MIC ([5]; ambient air at 37° C) was greater than 500 µM, the MIC ([6]; 5% CO2 atmosphere at 37° C) was greater than 500 µM and the MIC ([6]; ambient air at 37° C) was greater than 500 µM. The MIC ([7]; 5% CO2 atmosphere at 37° C) was greater than 500 µM, the MIC ([7]; ambient air at 37° C) was greater than 500 µM and the “Ef MIC50” value ([8]; inhibited 50% of the tested E. faecalis and E. faecium strains) was 9.01 µM. For the same molecule, the “Ef MIC90” value ([8]; inhibited 90% of the tested E. faecalis and E. faecium strains) was 18 µM, the “MICs in the presence of CO2” value ([9]; all Enterococcus species, 5% CO2) was greater than 288 µM and the “All Enterococci spp. MIC50” value ([9]; inhibited 50% of all tested Enterococcus strains, ambient air) was 9.01 µM. The “All Enterococci spp. MIC90” value ([9]; inhibited 90% of all tested Enterococcus strains, ambient air) was 36.0 µM, the “potency against α-CA over γ-CA based on Ki” value (E. faecium α-CA) was greater than 5 fold and the “survival (mice rescued)” value (E. faecium NR-31909 [10]; 20 mg/kg PO once-daily for three days, n = 6/group) was 66.7%. The “reduction of VRE bioburden compared to vehicle” value (E. faecium NR-31909 [10]; kidney, liver and spleen, each tissue, 20 mg/kg PO QD three days) was “at least 2 Log10 CFU/mL”, the “reduction of VRE bioburden” value (E. faecium NR-31909 [10]; kidney, liver and spleen, three-day treatment) was greater than 99% and the MIC (E. faecalis HM-334; 5% CO2 atmosphere at 37° C) was greater than 288 µM. For the same molecule, the MIC (E. faecalis HM-334; ambient air at 37° C) was 9.01 µM (≈ 2 µg/mL), the MIC (E. faecalis HM-335; 5% CO2 atmosphere at 37° C) was greater than 288 µM and the MIC (E. faecalis HM-335; ambient air at 37° C) was 9.01 µM (≈ 2 µg/mL). The “Log2 (FC)” value [11] was −7.88, the MIC (E. faecalis NR-31971; 5% CO2 atmosphere at 37° C) was greater than 288 µM and the MIC (E. faecalis NR-31971; ambient air at 37° C) was 9.01 µM (≈ 2 µg/mL). For the same molecule, the MIC (E. faecalis NR-31972; 5% CO2 atmosphere at 37° C) was greater than 288 µM, the MIC (E. faecalis NR-31972; ambient air at 37° C) was 9.01 µM (≈ 2 µg/mL) and the MIC (E. faecium HM-968; 5% CO2 atmosphere at 37° C) was greater than 288 µM. The MIC (E. faecium HM-968; ambient air at 37° C) was 9.01 µM (≈ 2 µg/mL), the MIC (E. faecium NR-28978; 5% CO2 atmosphere at 37° C) was greater than 288 µM and the MIC (E. faecium NR-28978; ambient air at 37° C) was 9.01 µM (≈ 2 µg/mL). For the same molecule, the MIC (E. faecium NR-31903; 5% CO2 atmosphere at 37° C) was greater than 288 µM, the MIC (E. faecium NR-31903; ambient air at 37° C) was 9.01 µM (≈ 2 µg/mL) and the MIC (E. faecium NR-31914; 5% CO2 atmosphere at 37° C) was greater than 288 µM. The MIC (E. faecium NR-31914; ambient air at 37° C) was 9.01 µM (≈ 2 µg/mL), the MIC (E. faecium NR-31916; 5% CO2 atmosphere at 37° C) was greater than 288 µM and the MIC (E. faecium NR-31916; ambient air at 37° C) was 9.01 µM (≈ 2 µg/mL). For the same molecule, the MIC (E. faecium NR-32052; 5% CO2 atmosphere at 37° C) was greater than 288 µM, the MIC (E. faecium NR-32052; ambient air at 37° C) was 9.01 µM (≈ 2 µg/mL) and the MIC (E. faecium NR-32065; 5% CO2 atmosphere at 37° C) was greater than 288 µM. The MIC (E. faecium NR-32065; ambient air at 37° C) was 4.50 µM (≈ 1 µg/mL).
